We go through eleven compounds from ChEMBL document CHEMBL1146250, “Synthesis and antimicrobial activity of 7-fluoro-3-aminosteroids” (2007).

One experiment concerns Escherichia coli. The experiment can be described thus: Antimicrobial activity against Escherichia coli DC2. The class given is functional.
In experiment [1] the test system is Streptococcus pyogenes. The experiment in a line: Antimicrobial activity against Streptococcus pyogenes 308A. The class given is functional.
Experiment [2] has as its system Streptococcus pyogenes. The experiment can be described thus: Antimicrobial activity against Streptococcus pyogenes 77A. The class given is functional.
In a further experiment the test system is Staphylococcus aureus. The experiment can be described thus: Antimicrobial activity against Staphylococcus aureus 503. The format is functional.
The test system of experiment [3] is Pseudomonas aeruginosa. The experiment can be described thus: Antimicrobial activity against Pseudomonas aeruginosa 9027. The format is functional.
Experiment [4] concerns Pseudomonas aeruginosa. The experiment in a line: Antimicrobial activity against Pseudomonas aeruginosa 1771M. The class given is functional.
The test system of the next experiment is Salmonella typhimurium. The experiment in a line: Antimicrobial activity against Salmonella Typhimurium. The format is functional, Salmonella enterica subsp. enterica serovar Typhimurium. Conditions: Salmonella enterica.
The test system of a further experiment is Enterobacter cloacae. The experiment can be described thus: Antimicrobial activity against Enterobacter cloacae 1321E. The format is functional.

≈ marks a conversion by molar mass, not a printed value.

What is called MIC is the lowest concentration that inhibits growth of the organism. Consider `CC(COS(=O)(=O)O)[C@H]1CC[C@H]2[C@@H]3[C@@H](F)C[C@H]4C[C@@H](NCCCNCCCCN)CC[C@]4(C)[C@H]3CC[C@]12C` (single isomer, unassigned), for which the MIC with Escherichia coli is 25 µg/mL (≈ 44.7 µM); against Streptococcus pyogenes [1] it was 50 µg/mL (≈ 89.3 µM); with Streptococcus pyogenes [2], 50 µg/mL (≈ 89.3 µM); against Staphylococcus aureus, 50 µg/mL (≈ 89.3 µM); in the experiment on Pseudomonas aeruginosa [3], 50 µg/mL (≈ 89.3 µM); against Pseudomonas aeruginosa [4], 50 µg/mL (≈ 89.3 µM). Moreover, the MIC in the experiment with Salmonella typhimurium and against Enterobacter cloacae was 50 µg/mL (≈ 89.3 µM) throughout.
For the compound `CC(CO)[C@H]1CC[C@H]2[C@@H]3[C@@H](F)C[C@H]4C[C@H](NCCCNCCCCN)CC[C@]4(C)[C@H]3CC[C@]12C` (single isomer, unassigned), the MIC turned out to be 12.5 µg/mL (≈ 26.1 µM) against Escherichia coli; 12.5 µg/mL (≈ 26.1 µM) in the experiment with Streptococcus pyogenes [1]; 6.3 µg/mL (≈ 13.1 µM) with Streptococcus pyogenes [2]; 6.3 µg/mL (≈ 13.1 µM) in the experiment on Staphylococcus aureus; 12.5 µg/mL (≈ 26.1 µM) in the experiment on Pseudomonas aeruginosa [3]; 25 µg/mL (≈ 52.1 µM) in the experiment on Pseudomonas aeruginosa [4]. Also, the figures for the MIC against Salmonella typhimurium and in the experiment with Enterobacter cloacae were 50 µg/mL (≈ 104 µM) and 100 µg/mL (≈ 208 µM), respectively.
On to `CC(CO)[C@H]1CC[C@H]2[C@@H]3[C@@H](F)C[C@H]4C[C@@H](NCCCNCCCCN)CC[C@]4(C)[C@H]3CC[C@]12C` (single isomer, unassigned), for which the MIC in the experiment with Escherichia coli was determined as 12.5 µg/mL (≈ 26.1 µM); in the experiment with Streptococcus pyogenes [1] it was 12.5 µg/mL (≈ 26.1 µM); against Streptococcus pyogenes [2] it was 12.5 µg/mL (≈ 26.1 µM); with Staphylococcus aureus, 6.3 µg/mL (≈ 13.1 µM); against Pseudomonas aeruginosa [3] it was 12.5 µg/mL (≈ 26.1 µM); against Pseudomonas aeruginosa [4] it was 6.3 µg/mL (≈ 13.1 µM). The MIC in the experiment with Salmonella typhimurium and against Enterobacter cloacae was 100 µg/mL (≈ 208 µM) in each case.
In the case of `C[C@@H](COS(=O)(=O)O)[C@H]1CC[C@H]2[C@@H]3[C@H](O)C[C@H]4C[C@@H](NCCCNCCCCN)CC[C@]4(C)[C@H]3CC[C@]12C`, the MIC in the experiment with Escherichia coli, in the experiment on Streptococcus pyogenes [2], in the experiment on Staphylococcus aureus, with Pseudomonas aeruginosa [3], in the experiment on Pseudomonas aeruginosa [4] and in the experiment on Salmonella typhimurium was 50 µg/mL (≈ 89.6 µM) in each case. In the experiment on Enterobacter cloacae, this compound returned an MIC of 50 µg/mL (≈ 89.6 µM).
Take `C[C@@H](CO)[C@H]1CC[C@H]2[C@@H]3[C@H](O)C[C@H]4C[C@@H](NCCCNCCCCN)CC[C@]4(C)[C@H]3CC[C@]12C`: the MIC with Escherichia coli amounted to 25 µg/mL (≈ 52.3 µM); against Streptococcus pyogenes [1], 25 µg/mL (≈ 52.3 µM); in the experiment on Streptococcus pyogenes [2] it was 25 µg/mL (≈ 52.3 µM); against Staphylococcus aureus, 12.5 µg/mL (≈ 26.2 µM); in the experiment with Pseudomonas aeruginosa [3] it was 12.5 µg/mL (≈ 26.2 µM); against Pseudomonas aeruginosa [4], 25 µg/mL (≈ 52.3 µM). In addition, the MIC in the experiment on Salmonella typhimurium and against Enterobacter cloacae was 50 µg/mL (≈ 105 µM) each time.
Regarding `CC(CO)[C@H]1CC[C@H]2[C@@H]3[C@H](F)C[C@H]4C[C@H](NCCCNCCCCN)CC[C@]4(C)[C@H]3CC[C@]12C` (single isomer, unassigned), the MIC with Escherichia coli is 50 µg/mL (≈ 104 µM); against Streptococcus pyogenes [1] it was 25 µg/mL (≈ 52.1 µM); in the experiment on Streptococcus pyogenes [2] it was 12.5 µg/mL (≈ 26.1 µM); against Staphylococcus aureus, 12.5 µg/mL (≈ 26.1 µM); in the experiment with Pseudomonas aeruginosa [3], 50 µg/mL (≈ 104 µM); in the experiment with Pseudomonas aeruginosa [4], 100 µg/mL (≈ 208 µM). For the same compound, the MIC with Salmonella typhimurium and against Enterobacter cloacae was 100 µg/mL (≈ 208 µM) each time.
For `CC(COS(=O)(=O)O)[C@H]1CC[C@H]2[C@@H]3[C@H](F)C[C@H]4C[C@@H](NCCCNCCCCN)CC[C@]4(C)[C@H]3CC[C@]12C` (single isomer, unassigned), the MIC against Escherichia coli is 50 µg/mL (≈ 89.3 µM); in the experiment with Streptococcus pyogenes [1], 50 µg/mL (≈ 89.3 µM); against Streptococcus pyogenes [2], 50 µg/mL (≈ 89.3 µM); in the experiment on Staphylococcus aureus, 25 µg/mL (≈ 44.7 µM); against Pseudomonas aeruginosa [3], 12.5 µg/mL (≈ 22.3 µM); with Pseudomonas aeruginosa [4], 25 µg/mL (≈ 44.7 µM). Besides, the MIC in the experiment on Salmonella typhimurium and in the experiment on Enterobacter cloacae was 100 µg/mL (≈ 179 µM) in each case.
With `CC(COS(=O)(=O)O)[C@H]1CC[C@H]2[C@@H]3[C@H](F)C[C@H]4C[C@H](NCCCNCCCCN)CC[C@]4(C)[C@H]3CC[C@]12C` (single isomer, unassigned), the MIC against Escherichia coli is 25 µg/mL (≈ 44.7 µM); in the experiment with Streptococcus pyogenes [1], 12.5 µg/mL (≈ 22.3 µM); with Streptococcus pyogenes [2], 12.5 µg/mL (≈ 22.3 µM); against Staphylococcus aureus, 12.5 µg/mL (≈ 22.3 µM); with Pseudomonas aeruginosa [3], 25 µg/mL (≈ 44.7 µM); in the experiment on Pseudomonas aeruginosa [4] it was 50 µg/mL (≈ 89.3 µM). The MIC against Salmonella typhimurium and against Enterobacter cloacae was 100 µg/mL (≈ 179 µM) throughout.
For `CC(CO)[C@H]1CC[C@H]2[C@@H]3CC[C@H]4C[C@@H](NCCCNCCCCN)CC[C@]4(C)[C@H]3CC[C@]12C` (single isomer, unassigned), the MIC came to 12.5 µg/mL (≈ 27.1 µM) in the experiment on Escherichia coli; 100 µg/mL (≈ 217 µM) against Streptococcus pyogenes [1]; 100 µg/mL (≈ 217 µM) in the experiment on Streptococcus pyogenes [2]; 6.3 µg/mL (≈ 13.6 µM) in the experiment on Staphylococcus aureus; 12.5 µg/mL (≈ 27.1 µM) against Pseudomonas aeruginosa [3]; 6.3 µg/mL (≈ 13.6 µM) against Pseudomonas aeruginosa [4]. For the same compound, the figures for the MIC against Salmonella typhimurium and against Enterobacter cloacae were 50 µg/mL (≈ 108 µM) and 100 µg/mL (≈ 217 µM), respectively.
For the compound `CC(CO)[C@H]1CC[C@H]2[C@@H]3[C@H](F)C[C@H]4C[C@@H](NCCCNCCCCN)CC[C@]4(C)[C@H]3CC[C@]12C` (single isomer, unassigned), the MIC is 6.3 µg/mL (≈ 13.1 µM) in the experiment on Escherichia coli; 6.3 µg/mL (≈ 13.1 µM) against Streptococcus pyogenes [1]; 6.3 µg/mL (≈ 13.1 µM) against Streptococcus pyogenes [2]; 6.3 µg/mL (≈ 13.1 µM) in the experiment with Staphylococcus aureus; 6.3 µg/mL (≈ 13.1 µM) with Pseudomonas aeruginosa [3]; 3.1 µg/mL (≈ 6.46 µM) with Pseudomonas aeruginosa [4]. For the same compound, the MIC in the experiment with Salmonella typhimurium and against Enterobacter cloacae was 100 µg/mL (≈ 208 µM) each time.
As for `CC(COS(=O)(=O)O)[C@H]1CC[C@H]2[C@@H]3[C@@H](F)C[C@H]4C[C@H](NCCCNCCCCN)CC[C@]4(C)[C@H]3CC[C@]12C` (single isomer, unassigned), the MIC against Escherichia coli amounted to 25 µg/mL (≈ 44.7 µM); with Streptococcus pyogenes [1], 25 µg/mL (≈ 44.7 µM); in the experiment on Streptococcus pyogenes [2], 12.5 µg/mL (≈ 22.3 µM); in the experiment with Staphylococcus aureus, 6.3 µg/mL (≈ 11.3 µM); with Pseudomonas aeruginosa [3], 50 µg/mL (≈ 89.3 µM); against Pseudomonas aeruginosa [4], 50 µg/mL (≈ 89.3 µM). Further, the MIC against Salmonella typhimurium and with Enterobacter cloacae was 50 µg/mL (≈ 89.3 µM) each time.
